Test results from PubChem BioAssay AID1259407 (Chemical Carcinogenesis Research Information System (CCRIS), 2018).
The source made the active and inactive calls. How the calls were made is not given here.

Tested on: CCRIS mutagenicity, Ames/micronucleus/aberration tests
Test: CCRIS mutagenicity studies
[1] = Test System: AMES SALMONELLA TYPHIMURIUM, Strain/Indicator: TA98, Metabolic Activation: NONE, Method: PREINCUBATION
[2] = Test System: AMES SALMONELLA TYPHIMURIUM, Strain/Indicator: TA98, Metabolic Activation: RAT, LIVER, S-9, AROCLOR 1254, Method: PREINCUBATION
[3] = Test System: AMES SALMONELLA TYPHIMURIUM, Strain/Indicator: TA100, Metabolic Activation: NONE, Method: PREINCUBATION
[4] = Test System: AMES SALMONELLA TYPHIMURIUM, Strain/Indicator: TA100, Metabolic Activation: RAT, LIVER, S-9, AROCLOR 1254, Method: PREINCUBATION
[5] = Test System: AMES SALMONELLA TYPHIMURIUM, Strain/Indicator: TA98, Metabolic Activation: NONE
[6] = Test System: AMES SALMONELLA TYPHIMURIUM, Strain/Indicator: TA100, Metabolic Activation: NONE

## O=Nc1ccccc1-c1ccccc1
Test System: AMES SALMONELLA TYPHIMURIUM, Strain/Indicator: TA98, Metabolic Activation: NONE, Method: STANDARD PLATE
  mutagenic call: inactive; negative
Test System: AMES SALMONELLA TYPHIMURIUM, Strain/Indicator: TA100, Metabolic Activation: NONE, Method: STANDARD PLATE
  mutagenic call: active; positive

## OC1C=Cc2c(ccc3c2-c2cccc4cccc-3c24)C1O (stereo unspecified)
Test System: AMES SALMONELLA TYPHIMURIUM, Strain/Indicator: TA97A, Metabolic Activation: NONE, Method: PREINCUBATION
  mutagenic call: inactive; negative
Test System: AMES SALMONELLA TYPHIMURIUM, Strain/Indicator: TA97A, Metabolic Activation: RAT, LIVER, S-9, AROCLOR 1254, Method: PREINCUBATION
  mutagenic call: active; positive
[1]
  mutagenic call: inactive; negative
[2]
  mutagenic call: active; positive
[3]
  mutagenic call: inactive; negative
[4]
  mutagenic call: active; positive

## O.O.O=N[O-].O=N[O-].O=N[O-].O=N[O-].[K+].[K+].[Pt]
[1]
  mutagenic call: inactive; negative
[2]
  mutagenic call: inactive; negative
[3]
  mutagenic call: inactive; negative
[4]
  mutagenic call: inactive; negative

## O=[N+]([O-])c1ccccc1Br
[1]
  mutagenic call: inactive; negative
[3]
  mutagenic call: inactive; negative
Test System: AMES SALMONELLA TYPHIMURIUM, Strain/Indicator: TA100, Metabolic Activation: RAT, LIVER, S-9, KANECHLOR 500, Method: PREINCUBATION
  mutagenic call: active; positive

## COc1cc(-c2ccc(N/N=C3\C=Cc4c(S(=O)(=O)O)cc(S(=O)(=O)O)c(N)c4C3=O)c(OC)c2)ccc1N/N=C1/C=Cc2c(S(=O)(=O)O)cc(S(=O)(=O)O)c(N)c2C1=O
Test System: AMES SALMONELLA TYPHIMURIUM, Strain/Indicator: TA98, Metabolic Activation: HAMSTER, LIVER, S-9, Method: PREINCUBATION (PRIVAL METHOD)
  mutagenic call: active; positive
Test System: Ames Salmonella typhimurium, Strain/Indicator: TA98, Metabolic Activation: Rat, Liver, S-9, Sodium phenobarbitone, Method: Preincubation
  mutagenic call: inactive; negative, test conducted under both aerobic and anaerobic conditions.
Test System: Ames Salmonella typhimurium, Strain/Indicator: TA1538, Metabolic Activation: Rat, Liver, S-9, Sodium phenobarbitone, Method: Preincubation
  mutagenic call: inactive; negative, test conducted under both aerobic and anaerobic conditions.

## O=C(CCl)c1ccccc1
Test System: AMES SALMONELLA TYPHIMURIUM, Strain/Indicator: TA98, Metabolic Activation: HAMSTER, LIVER, S-9, AROCLOR 1254 (10%), Method: PREINCUBATION
  mutagenic call: inactive; negative
[5]
  mutagenic call: inactive; negative
[1]
  mutagenic call: inactive; negative
Test System: AMES SALMONELLA TYPHIMURIUM, Strain/Indicator: TA98, Metabolic Activation: RAT, LIVER, S-9, AROCLOR 1254 (10%), Method: PREINCUBATION
  mutagenic call: inactive; negative
Test System: AMES SALMONELLA TYPHIMURIUM, Strain/Indicator: TA98, Metabolic Activation: RAT, LIVER, S-9, PHENOBARBITONE AND BETA-NAPHTHOFLAVONE
  mutagenic call: inactive; negative
Test System: AMES SALMONELLA TYPHIMURIUM, Strain/Indicator: TA100, Metabolic Activation: HAMSTER, LIVER, S-9, AROCLOR 1254 (10%), Method: PREINCUBATION
  mutagenic call: inactive; negative
[6]
  mutagenic call: inactive; negative
[3]
  mutagenic call: inactive; negative
Test System: AMES SALMONELLA TYPHIMURIUM, Strain/Indicator: TA100, Metabolic Activation: RAT, LIVER, S-9, AROCLOR 1254 (10%), Method: PREINCUBATION
  mutagenic call: inactive; negative
Test System: AMES SALMONELLA TYPHIMURIUM, Strain/Indicator: TA100, Metabolic Activation: RAT, LIVER, S-9, PHENOBARBITONE AND BETA-NAPHTHOFLAVONE
  mutagenic call: inactive; negative
Test System: AMES SALMONELLA TYPHIMURIUM, Strain/Indicator: TA1535, Metabolic Activation: HAMSTER, LIVER, S-9, AROCLOR 1254 (10%), Method: PREINCUBATION
  mutagenic call: inactive; negative
Test System: AMES SALMONELLA TYPHIMURIUM, Strain/Indicator: TA1535, Metabolic Activation: NONE, Method: PREINCUBATION
  mutagenic call: inactive; negative
Test System: AMES SALMONELLA TYPHIMURIUM, Strain/Indicator: TA1535, Metabolic Activation: RAT, LIVER, S-9, AROCLOR 1254 (10%), Method: PREINCUBATION
  mutagenic call: inactive; negative
Test System: AMES SALMONELLA TYPHIMURIUM, Strain/Indicator: TA1537, Metabolic Activation: HAMSTER, LIVER, S-9, AROCLOR 1254 (10%), Method: PREINCUBATION
  mutagenic call: inactive; negative
Test System: AMES SALMONELLA TYPHIMURIUM, Strain/Indicator: TA1537, Metabolic Activation: NONE, Method: PREINCUBATION
  mutagenic call: inactive; negative
Test System: AMES SALMONELLA TYPHIMURIUM, Strain/Indicator: TA1537, Metabolic Activation: RAT, LIVER, S-9, AROCLOR 1254 (10%), Method: PREINCUBATION
  mutagenic call: inactive; negative
Test System: AMES SALMONELLA TYPHIMURIUM, Strain/Indicator: TA1538, Metabolic Activation: NONE
  mutagenic call: inactive; negative
Test System: AMES SALMONELLA TYPHIMURIUM, Strain/Indicator: TA1538, Metabolic Activation: RAT, LIVER, S-9, PHENOBARBITONE AND BETA-NAPHTHOFLAVONE
  mutagenic call: inactive; negative

## CN(C=O)N=O
Test System: AMES SALMONELLA TYPHIMURIUM, Strain/Indicator: TA1535, Metabolic Activation: NONE, Method: STANDARD PLATE
  mutagenic call: active; positive
Test System: E. COLI, Strain/Indicator: WU3610, Metabolic Activation: NONE, Method: SUSPENSION/PLATE
  mutagenic call: active; positive

## Cc1cnccn1
[1]
  mutagenic call: inactive; negative
[2]
  mutagenic call: inactive; negative
[3]
  mutagenic call: inactive; negative
[4]
  mutagenic call: inactive; negative
Test System: AMES SALMONELLA TYPHIMURIUM, Strain/Indicator: TA102, Metabolic Activation: NONE, Method: PREINCUBATION
  mutagenic call: inactive; negative
Test System: AMES SALMONELLA TYPHIMURIUM, Strain/Indicator: TA102, Metabolic Activation: RAT, LIVER, S-9, AROCLOR 1254, Method: PREINCUBATION
  mutagenic call: inactive; negative

## FC(F)(F)C(F)(F)C(F)(F)C(F)(F)I
End Point: IN VITRO CHROMOSOMAL ABERRATIONS, Test System: HUMAN PERIPHERAL BLOOD LYMPHOCYTES, Metabolic Activation: NONE
  mutagenic call: inactive; negative
End Point: IN VITRO CHROMOSOMAL ABERRATIONS, Test System: HUMAN PERIPHERAL BLOOD LYMPHOCYTES, Metabolic Activation: RAT, LIVER, S-9, AROCLOR 1254
  mutagenic call: inactive; negative
[5]
  mutagenic call: inactive; negative
Test System: AMES SALMONELLA TYPHIMURIUM, Strain/Indicator: TA98, Metabolic Activation: RAT, LIVER, S-9, AROCLOR 1254
  mutagenic call: inactive; negative
[6]
  mutagenic call: inactive; negative
Test System: AMES SALMONELLA TYPHIMURIUM, Strain/Indicator: TA100, Metabolic Activation: RAT, LIVER, S-9, AROCLOR 1254
  mutagenic call: inactive; negative
Test System: AMES SALMONELLA TYPHIMURIUM, Strain/Indicator: TA1535, Metabolic Activation: NONE
  mutagenic call: inactive; negative
Test System: AMES SALMONELLA TYPHIMURIUM, Strain/Indicator: TA1535, Metabolic Activation: RAT, LIVER, S-9, AROCLOR 1254
  mutagenic call: inactive; negative
Test System: AMES SALMONELLA TYPHIMURIUM, Strain/Indicator: TA1537, Metabolic Activation: NONE
  mutagenic call: inactive; negative
Test System: AMES SALMONELLA TYPHIMURIUM, Strain/Indicator: TA1537, Metabolic Activation: RAT, LIVER, S-9, AROCLOR 1254
  mutagenic call: inactive; negative
Test System: E. COLI, Strain/Indicator: WP2UVRA, Metabolic Activation: NONE
  mutagenic call: inactive; negative
Test System: E. COLI, Strain/Indicator: WP2UVRA, Metabolic Activation: RAT, LIVER, S-9, AROCLOR 1254
  mutagenic call: inactive; negative
